# What was measured:
# rats = experiment: Feeding experiments in rats (1-h food intake); type: in vivo, rat; details: GLP-1 3 nmol i.v.
# Description: First, rats fasted for 8 h (02:00–10:00) received an i.v. injection of human GLP-1 (3 nmol/100 µl saline, CS Bio) or saline at 10:00, then they were administered human ghrelin (1.5 nmol/100 µl saline, Peptide Institute) or saline injection at 10:30. Food intake was determined from 10:30 to 11:30. Secondly, rats fed ad libitum received an i.v. ghrelin (1.5 nmol/100 µl) or saline injection at 10:00 or 19:30, then they were administered GLP-1 (3 nmol/100 µl) or saline injection at 10:30 or 20:00. Food intake was measured from 10:30 to 11:30 or 20:00 to 21:00. Thirdly, mice fasted for 8 h (02:00–10:00) received an i.p. injection of ghrelin (1.5 nmol/100 µl saline) or saline at 10:00, then they were administered human GLP-1 (3 nmol/100 µl saline) or saline at 10:30 and 1 h food intake (10:30–11:30) was measured. Fourthly, Ghsr^−/− and their wild-type mice fasted for 12 h (22:00–10:00) were administered ghrelin (1.5 nmol/50 µl saline, i.p.) at 10:00, then they were administered GLP-1 (3 nmol/50 µl saline, i.p.) or saline injection at 10:30, and food intake was measured from 10:30 to 11:30. Finally, Glp1r ^−/− and their wild-type mice were administered GLP-1 (3 nmol/50 µl, i.p.) or saline at 10:00, subsequently given a ghrelin (1.5 nmol/50 µl, i.p.) or saline injection at 10:30, food intake was measured from 10:30 to 11:30. […]
# mice = experiment: Feeding experiments in mice (1-h food intake); type: in vivo, mouse; details: for food intake, GLP-1 preadministration before ghrelin: GLP-1 3 nmol i.p. 30 min before ghrelin 1.5 nmol i.p., n = 8
# [1] = Pharmacokinetics analysis: plasma profiles of ghrelin and GLP-1 in rats; details: i.v. into femoral vein, peptide administered first (GLP-1 3 nmol, ghrelin 1.5 nmol), GLP-1 by active ELISA, ghrelin by enzyme immunoassay
# Description: Blood was withdrawn from the right jugular vein at: 1, 2.5, 5, 10, 20, 30, 32.5, 35, 40, 50, and 60 min after the first injection. Blood was collected into tubes containing 1.25 mg EDTA and aprotinin (500 kallikrein-inhibiting units/ml blood) (Wako Pure Chemical Industries), and all samples were centrifuged within 2 h of collection. […] For ghrelin assay, 1 M HCl (100 µl/ml) was added to the plasma. All samples were stored at − 70 °C until analysis.
# gastric vagal afferent = experiment: Multi-unit nerve discharge of the gastric vagal afferent; type: in vivo, rat; details: anaesthetised rats, i.v., n = 3
# Description: Multi-unit neural discharge in gastric vagal afferent fibres was recorded extracellularly. Rats were anesthetised by an i.p. injection of urethane (1 g/kg) (Sigma-Aldrich). The electrophysiological study was performed entirely under anaesthetisation as described previously. After the gastric branch of the vagal nerve was visualised, we placed filaments isolated from the peripheral cut end of the ventral branch for the recording of afferent nerve activity via a pair of silver wire electrodes connected through an alternating current-coupled differential amplifier (ER-1; Cygnus Technology) to PowerLab (AD Instruments). The nerve activities were recorded and analysed using LabChart v8 software (AD Instruments). […] After the first administration, nerve discharges from the multi-unit afferents were analysed for 60 min.
# [2] = system: Fos expression in NG, NTS and ARC neurons; experiment: Fos immunohistochemical staining (NG, NTS, ARC); type: in vivo, mouse; details: mice
# Description: The NG and brain were removed, fixed overnight in a fixative solution containing 4% PFA, cryoprotected in 0.1 M PB containing 20% sucrose and embedded in Tissue-Tek O.C.T. compound. The 10 µm sections were mounted on slides permeabilized with 0.3% triton X-100 in PBS (PBS-T). After permeabilization, antigens were retrieved by heating the sections in an autoclave for 1 h at 70 °C with a Histo VT one (Nakalai Teaque, Kyoto, Japan). All sections were blocked with 5% goat-serum in PBS-T. Three specimens each of NG, NTS and ARC were incubated for 48 h at 4 °C with c-Fos antiserum (Supplementary Table S1), then incubated for 1 h with Alexa Fluor 488- (NTS and ARC) or 594- (NG) conjugated anti-rabbit IgG at room temperature (Supplementary Table S1). To stain nuclei of the neurons, the specimens from NG were incubated with Alexa Fluor 488-conjugated Anti-NeuN IgG (Supplementary Table S1) at RT for 1 h, and the specimens from NTS and ARC were incubated overnight with Alexa Fluor 555-conjugated anti-NeuN IgG (Supplementary Table S1) at 4 °C. Images of immunofluorescence staining were observed using a Nikon C2 + confocal laser scanning microscope (Nikon, Tokyo, Japan). Fos-positive neurons in three specimens from each animal were counted using ImageJ.
# NG neurons [3] = experiment: Calcium response in single neurons isolated from NG (Fura-2); type: cell-based, mouse
# Description: Bilateral NGs resected from mice were immersed in hibernateA media (BrainBits). Each ganglion was cut into five pieces, placed in HibernateA minus Ca^2+ media (BrainBits) containing 1 mg/ml collagenase/dispase (Roche Diagnostics) and incubated for 90 min at 37 °C. Neurons were dispersed by gentle titration through pipettes and they were washed three times with fresh NbActive4 media (BrainBits) and plated onto poly-D-lysine/laminin (BD Bioscience)-coated coverslips, followed by incubation (5% CO2 in air at 37 °C) for 24 h. Cultures were rinsed in 10 mM phosphate buffered saline (PBS) and fixed with 4% paraformaldehyde (PFA) in phosphate buffer (PB). Ganglion neurons were incubated with the first primary antibodies; anti-GLP-1R or anti-GHSR at 4 °C overnight, and then with the second primary antibodies; anti-GHSR or anti-Pan Neuronal Marker (Supplementary Table S1) at 4 °C overnight. They were then reacted with corresponding Alexa Fluor 488- or 594-conjugated secondary IgG (Supplementary Table S1) at RT for 1 h. Neurons were observed under a fluorescence microscope (Olympus).
# Ca^2+ imaging was performed under continuous perfusion of NG neurons with Krebs–Ringer-Henseleit buffer (Composition in mmol L^−1: NaCl 119, KCl 4.74, CaCl2 2.54, MgCl2 1.19, KH2PO4 1.19, NaHCO3 25, HEPES 10, pH 7.4) at a flow rate of 600 μl/min at 37 °C. NG neurons were loaded with 1 µM Fura-2 acetoxymethyl ester (Dojindo Labs) in NbActive4 media at 37 °C for 30 min. For Ca^2+ measurements in an integrated fluorescence microscope (Keyence BZ-X700), images were captured at 10-s intervals; 340- and 380-nm excitation filters were used for Fura-2-AM dual-wavelength excitation ratio imaging. NG neurons were stimulated with 10 nM either ghrelin or GLP-1, and 10 min later stimulated with the other peptide. At the end of experiments, cells were exposed to 100 mM KCl (Nacalai Tesque) for 2 min. […] All data were expressed as percent changes from the average of the 340/380 fluorescence ratio in response to ghrelin or GLP-1.
# All neurons collected in retrograde tracing studies and used to assess calcium response and patch-clamp recording were picked up by the UnipicK + system (NeuroInDx) immediately after each measurement. RNA was isolated from single neurons with PicoPure RNA Isolation Kit (Applied Biosystems). qRT-PCR (primer sets, Supplementary Table S2) was conducted with SYBR Premix Ex Taq (2 ×) (Takara Bio Inc.) on a Thermal Cycler Dice Real-Time System II (Takara Bio Inc.). In the retrograde tracer studies, percentage of stomach-innervating NG neurons expressing Ghsr or Glp1r were analysed. In the patch-clamp recording, only Ghsr^+ Glp1r^+ neuron cells were used for the final analysis.
# NG neurons [4] = experiment: Whole-cell voltage-clamp (patch-clamp) of NG neurons; type: cell-based, mouse; details: whole-cell voltage clamp -80 to 40 mV, 10 nM peptide, Ghsr- and Glp1r-expressing NG neurons, n = 10
# Description: NG neurons were perfused in the bath solution (Composition in mmol L^−1: NaCl 126.2, KCl 3.1, MgCl2 2, CaCl2 2, HEPES 10, glucose 10; pH 7.39, osmolarity 320 mOsm) with 10 nM ghrelin or 10 nM GLP-1. Whole-cell recordings were performed using patch pipettes of 3.5–5 MΩ resistance backfilled with a solution (Composition in mmol L^−1: K gluconate 125, KCl 8, MgCl2 4, HEPES 10, ATP 2, GTP 0.4, Na2-creatine phosphate 5; pH 7.23, osmolarity 300 mOsm). After obtaining a giga-seal, membrane access resistance was monitored for 5–10 min until it became stable at 10 MΩ or less. Data were acquired from isolated vagal sensory neurons of mice in Axopatch 1D amplifier (Molecular Devices) filtered at 1 kHz. Signals were digitised in analogue-to-digital converter (Axon Digidata 1322A; Molecular Devices), and analysed on a computer running pCLAMP 10 software (Molecular Devices).
# All neurons collected in retrograde tracing studies and used to assess calcium response and patch-clamp recording were picked up by the UnipicK + system (NeuroInDx) immediately after each measurement. […] In the retrograde tracer studies, percentage of stomach-innervating NG neurons expressing Ghsr or Glp1r were analysed. […]
compound,measurement,setting,value
"CC[C@H](C)[C@H](NC(=O)[C@H](Cc1ccccc1)NC(=O)[C@H](CCC(=O)O)NC(=O)[C@H](CCCCN)NC(=O)[C@H](C)NC(=O)[C@H](C)NC(=O)[C@H](CCC(N)=O)NC(=O)CNC(=O)[C@H](CCC(=O)O)NC(=O)[C@H](CC(C)C)NC(=O)[C@H](Cc1ccc(O)cc1)NC(=O)[C@H](CO)NC(=O)[C@H](CO)NC(=O)[C@@H](NC(=O)[C@H](CC(=O)O)NC(=O)[C@H](CO)NC(=O)[C@@H](NC(=O)[C@H](Cc1ccccc1)NC(=O)[C@@H](NC(=O)CNC(=O)[C@H](CCC(=O)O)NC(=O)[C@H](C)NC(=O)[C@@H](N)Cc1c[nH]cn1)[C@@H](C)O)[C@@H](C)O)C(C)C)C(=O)N[C@@H](C)C(=O)N[C@@H](Cc1c[nH]c2ccccc12)C(=O)N[C@@H](CC(C)C)C(=O)N[C@H](C(=O)N[C@@H](CCCCN)C(=O)NCC(=O)N[C@@H](CCCNC(=N)N)C(N)=O)C(C)C [GLP-1, glucagon-like peptide 1]",food intake,"rats; 8-h fasted rats, compared with saline, n = 8",significantly reduced food intake
same,food intake,"rats; rats fed ad libitum, dark phase (20:00-21:00), n = 6",suppressed feeding
same,"food intake, GLP-1 preadministration before ghrelin",mice; Glp1r-/- mice fed ad libitum,did not affect ghrelin-induced feeding
same,feeding effect of the peptide administered second,"mice; mice, two peptides in a 60-min interval, peptide given 60 min after the first peptide",exhibited its proper effect
same,"food intake, GLP-1 preadministration before ghrelin",mice; wild-type mice (of Glp1r-/-) fed ad libitum,abolished ghrelin-induced feeding
same,time at which plasma concentration returned to the base,[1],30 min
same,gastric vagal afferent activity,"gastric vagal afferent; ghrelin 1.5 nmol or GLP-1 1 nmol, peptide given first",enhanced it
same,"gastric vagal afferent activity, second peptide","gastric vagal afferent; peptide given 30 min after the other peptide (ghrelin 1.5 nmol, GLP-1 1 nmol)",GLP-1-enhanced activity was not observed
same,ghrelin-induced Fos in the ARC after GLP-1 preadministration,"[2]; GLP-1 3 nmol i.p. 30 min before ghrelin 1.5 nmol i.p., n = 4",abolished ghrelin-induced Fos in the ARC
same,Fos-positive neurons in left NG,"[2]; GLP-1 3 nmol i.p. alone, n = 3",70.5%
same,Fos-positive neurons in right NG,"[2]; GLP-1 3 nmol i.p. alone, n = 3",71.0%
same,Fos in the NTS,"[2]; GLP-1 3 nmol i.p. alone, n = 4",induced Fos in the NTS
same,"calcium response, GLP-1 after ghrelin","NG neurons [3]; Glp1r+Ghsr+ neurons, 10 nM GLP-1 10 min after 10 nM ghrelin, n = 10",failed to evoke calcium response
same,calcium response,"NG neurons [3]; Glp1r+Ghsr+ neurons, 10 nM GLP-1 given first, n = 10",evoked calcium response
same,calcium response,"NG neurons [3]; Glp1r+Ghsr- neurons, 10 nM GLP-1",evoked calcium response
same,calcium response,"NG neurons [3]; Glp1r-Ghsr- neurons, 10 nM GLP-1",not
same,current in I/V relationship,NG neurons [4],generated depolarizing current

# From article PMC7595212, “Functional interaction between Ghrelin and GLP-1 regulates feeding through the vagal afferent system” (Scientific Reports, 2020)
